The record followed here is ChEMBL document CHEMBL2440087, “Novel complex crystal structure of prolyl hydroxylase domain-containing protein 2 (PHD2): 2,8-Diazaspiro[4.5]decan-1-ones as potent, orally bioavailable PHD2 inhibitors” (Bioorg Med Chem, 2013).

Data set [1] relates to Mus musculus. The experiment in a line: Dose normalized AUC in C57BL/6 mouse at 10 mg/kg, po. Conditions: in vivo. In kind it is ADME, organism-based. Further details: dose 10 mg/kg, route oral.
Data set [2] deals with Mus musculus. The experiment in a line: Dose normalized AUC (0 to t) in C57BL/6 mouse at 10 mg/kg, po. In kind it is ADME, organism-based. Also noted: dose 10 mg/kg, route oral. The note with it: in vivo.

As to `Cc1cccnc1CN1CCC2(CC1)CCN(c1ccc(-c3ccc(C(=O)O)cc3)cc1)C2=O`, the AUC/dose with Mus musculus [1] turned out to be 634 ng·h/mL/mg/kg. `Cc1cc(CCC(=O)O)cnc1CN1CCC2(CC1)CCN(c1ccc(-c3ccccc3)cc1)C2=O` had an AUCt/dose in the data set on Mus musculus [2] of 22.6 ng·h/mL/mg/kg.
